Test results taken from patent US6436395B1, “Rosellinia subiculata ATCC 74386 and fungus ATCC 74387 for producing sordarin compounds for fungi control” (Merck & Co., Inc., priority 1996, dated 2002).

Tests used:
Type in all cases: in vivo
[1] = test system: Erysiphe graminis; assay: Action against Erysiphe graminis on wheat, protectant foliar spray (test a); conditions: wheat plants, 200 ppm spray 2 hours before infection (protectant), evaluated after 8 days
Method: 1. Action against Erysiphe graminis on wheat. a) After 1 week cultivation, wheat plants are sprayed to run off with a spray mixture (200 ppm active ingredient/20% acetone/0.25% Triton […]). After 2 hours, the treated plants are infected with ascospores shaken from inoculum plants. Fungal attack is evaluated after incubation for 8 days at 22° C. at 50% relative humidity to determine the protection given by the compound.

[2] = test system: Erysiphe graminis; assay: Action against Erysiphe graminis on wheat, curative foliar spray (test b); conditions: wheat plants, 200 ppm spray 24 hours after infection (curative), evaluated after 8 days
Method: 1. Action against Erysiphe graminis on wheat. b) After 1 weeks cultivation, wheat plants are infected with ascospores shaken from inoculum plants. After 24 hours, the wheat plants are sprayed with a spray mixture (200 ppm active ingredient/ 20% acetone/0.25% Triton […]). Fungal attack is evaluated after incubation for 8 days at 22° C. at 50% relative humidity to determine the degree of curative activity provided by the compound.

[3] = test system: Erysiphe graminis; assay: Action against Erysiphe graminis on wheat, curative soil drench, systemic (test c); conditions: wheat plants, 200 ppm soil drench 24 hours after infection (systemic), evaluated after 8 days
Method: 1. Action against Erysiphe graminis on wheat. c) After 1 weeks cultivation, wheat plants are infected with ascospores shaken from inoculum plants. After 24 hours, the soil in which the wheat plants are growing is drenched with the drench mixture (200 ppm active ingredient/20% acetone/0.25% Triton […]). Fungal attack is evaluated after incubation for 8 days at 22° C. at 50% relative humidity to determine the degree of curative activity provided by the compound.

[4] = test system: Puccinia recondita; assay: Action against Puccinia recondita on wheat, protectant foliar spray (test a); conditions: wheat plants, 200 ppm spray 2 hours before infection (protectant), evaluated after 1 day + 7 days
Method: 2. Action against Puccinia recondita on wheat a) After 1 weeks cultivation, wheat plants sprayed to run off with a spray mixture (200 ppm active ingredient/20% acetone/0.25% Triton […]). After 2 hours, the treated plants are infected with a spore. Fungal attack is evaluated after incubation for 1 day at 95-100% relative humidity at 20° C. followed by 7 days at 25° C. at 50% relative humidity to determine the protection given by the compound.

[5] = test system: Puccinia recondita; assay: Action against Puccinia recondita on wheat, curative foliar spray (test b); conditions: wheat plants, 200 ppm spray 24 hours after infection (curative), evaluated after 1 day + 7 days
Method: 2. Action against Puccinia recondita on wheat b) After 1 weeks cultivation, wheat plants are infected with a spore suspension After 24 hours, the infected plants are sprayed to run off with a spray mixture (200 ppm active ingredient/20% acetone/0.25% Triton […]. Fungal attack is evaluated after incubation for 1 day at 95-100% relative humidity at 20° C. followed by 7 days at 25° C. at 50% relative humidity to determine the degree of curative activity provided by the compound.

[6] = test system: Puccinia recondita; assay: Action against Puccinia recondita on wheat, curative soil drench, systemic (test c); conditions: wheat plants, 200 ppm soil drench 24 hours after infection (systemic), evaluated after 1 day + 7 days
Method: 2. Action against Puccinia recondita on wheat c). After 1 weeks cultivation, wheat plants are infected with a spore suspension After 24 hours, the soil in which the wheat plants are growing was drenched with the drench mixture (200 ppm active ingredient/20% acetone/0.25% Triton […]). Fungal attack is evaluated after incubation for 1 day at 95-100% relative humidity at 20° C. followed by 7 days at 25° C. at 50% relative humidity to determine the degree of curative activity provided by the compound.

Measured: control of fungal infection

CO[C@H]1[C@@H](O)[C@H](O)[C@H](OC[C@@]23C[C@@H]4[C@H](C)CC[C@H]4[C@@]4(C=O)CC2C=C(C(C)C)[C@@]34C(=O)O)O[C@@H]1C [sordarin, Sordarin]
100%: all assays above
